According to patent US20080213363A1, “Methods and compositions for delivering 5-HT3 antagonists across the oral mucosa” (priority 2003, published 2008):
Read-outs that look alike come from different tables or passages of the source.

Type: in vitro ADME
Details: PAMPA
Description: Topics Med. Chem. 2001, 1, 277-351.

Papp (pH 5.4): 0.32 ×10⁻⁶ cm/s
Papp (pH 7.4): 1.3 ×10⁻⁶ cm/s
Papp (pH 8.5): 3.25 ×10⁻⁶ cm/s
SMILES: Cc1nccn1CC1CCc2c(c3ccccc3n2C)C1=O.Cl (stereo not drawn) [Ondansetron HCl, ondansetron HCl]
